Experimental findings from ChEMBL document CHEMBL1201862, “PubChem BioAssay data set” (2004) are described below.

One assay deals with Prothrombin (Bos taurus, UniProt P00735). Briefly: thrombin inhibition, dose response, biochemical, fluorescence polarization, uHTS hits (AID 602369). The format is functional. A general note: Fluorescence polarisation rises when a labelled molecule tumbles more slowly, as on binding a larger partner.
The next assay has as its target T1, Cytochrome P450 1A2 (Homo sapiens, UniProt P05177).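 Further: PubChem cytochrome P450 panel assay, CYP1A2 panel member.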
T1 sequence (P05177 whole entry): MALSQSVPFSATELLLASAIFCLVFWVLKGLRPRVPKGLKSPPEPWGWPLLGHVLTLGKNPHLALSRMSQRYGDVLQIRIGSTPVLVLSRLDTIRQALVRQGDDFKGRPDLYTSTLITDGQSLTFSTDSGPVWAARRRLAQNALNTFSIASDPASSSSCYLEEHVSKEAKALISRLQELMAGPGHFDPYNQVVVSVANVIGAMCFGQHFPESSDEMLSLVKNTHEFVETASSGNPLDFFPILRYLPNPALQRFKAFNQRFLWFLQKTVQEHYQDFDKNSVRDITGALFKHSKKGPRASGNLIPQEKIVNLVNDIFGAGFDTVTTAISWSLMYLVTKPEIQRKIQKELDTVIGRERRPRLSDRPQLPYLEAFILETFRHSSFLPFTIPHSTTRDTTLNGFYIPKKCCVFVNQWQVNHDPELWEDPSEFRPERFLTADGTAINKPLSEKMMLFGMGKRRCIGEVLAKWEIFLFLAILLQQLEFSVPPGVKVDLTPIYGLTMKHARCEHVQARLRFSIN

For assay [1], the target named is 26S proteasome non-ATPase regulatory subunit 14 (Homo sapiens, UniProt O00487). Briefly: inhibition of proteasome subunit RPN11 – biochemical, fluorescence polarization, uHTS hits, confirmation (AID 602368). The format is functional.
The target of another assay is Cytochrome P450 2D6 (Homo sapiens, UniProt P10635).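 Further: CYP2D6 member of a cytochrome P450 panel assay.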
For assay [2], the target named is 72 kDa type IV collagenase (Homo sapiens, UniProt P08253). Nature of the assay: Dose Response validation of uHTS RPN11 inhibitor hits using a MMP-2 Fluorescence assay. The assay is classed as functional.
A short description of assay [3]: CAL PDZ domain peptide-binding inhibitors, dose response, biochemical, fluorescence polarization, untagged CAL PDZ, cherry-pick, set 2 (AID 602254). The format is functional.
The nature of assay [4]: nonselective inhibitors of cellular cAMP signaling, dose response, counter-screen for MC4R biased antagonist project, cell-based, TR-FRET cAMP detection (AID 602305).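 Further: U2OS cells stimulated with forskolin near its EC80 as the cAMP inducer; potency is for inhibition of forskolin-stimulated cAMP signaling.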 The format is functional. For orientation: The purpose of a counterscreen is to sort out artefacts and off-target activity.
The next assay addresses Melanocortin receptor 4 (Homo sapiens, UniProt P32245). Nature of the assay: MC4R antagonist potency on cAMP, dose response, cell-based, TR-FRET, biased antagonists (AID 602298).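 Further: antagonist potency against agonist-stimulated cAMP production.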 The assay is classed as functional.
The next assay deals with SUMO-activating enzyme (Homo sapiens, UniProt Q9UBT2). Nature of the assay: inhibitors of in vitro SUMOylation cascade, primary screen, biochemical, HTRF, uHTS (AID 2006). The assay is classed as protein-complex assay.
Assay [5] has as its system HEK293. Briefly: optical interference in Abeta FP readout, dose response, artefact control for IDE activator project, biochemical, fluorescence polarization (AID 588442). The assay is classed as functional, cell-based. The note with it: Homo sapiens.
Assay [6] deals with HEK293. Nature of the assay: HEK cell cytotoxicity by LDH release, dose response, cytotoxicity control for IDE activator project, fluorescence, HEK cells (AID 588440).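 Further: cytotoxicity by LDH release measuring loss of membrane integrity.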 The note with it: Homo sapiens. The format is functional, cell-based.
For another assay, the target named is T2, Bcl-2-related protein A1 (Mus musculus, UniProt Q07440).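 Further: confirmatory dose–response counterscreen on Bfl-1, used to check hits from a UBC13 polyubiquitin inhibitor campaign.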
T2 sequence (Q07440 whole entry): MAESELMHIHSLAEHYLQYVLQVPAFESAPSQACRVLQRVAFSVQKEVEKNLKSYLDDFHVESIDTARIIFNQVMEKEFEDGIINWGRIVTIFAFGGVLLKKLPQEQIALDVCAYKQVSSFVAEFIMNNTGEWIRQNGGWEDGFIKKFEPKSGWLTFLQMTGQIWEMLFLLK
The format is functional.

Assay [7] has as its target T3, Insulin-degrading enzyme (Homo sapiens, UniProt P14735).
T3 sequence (P14735 whole entry): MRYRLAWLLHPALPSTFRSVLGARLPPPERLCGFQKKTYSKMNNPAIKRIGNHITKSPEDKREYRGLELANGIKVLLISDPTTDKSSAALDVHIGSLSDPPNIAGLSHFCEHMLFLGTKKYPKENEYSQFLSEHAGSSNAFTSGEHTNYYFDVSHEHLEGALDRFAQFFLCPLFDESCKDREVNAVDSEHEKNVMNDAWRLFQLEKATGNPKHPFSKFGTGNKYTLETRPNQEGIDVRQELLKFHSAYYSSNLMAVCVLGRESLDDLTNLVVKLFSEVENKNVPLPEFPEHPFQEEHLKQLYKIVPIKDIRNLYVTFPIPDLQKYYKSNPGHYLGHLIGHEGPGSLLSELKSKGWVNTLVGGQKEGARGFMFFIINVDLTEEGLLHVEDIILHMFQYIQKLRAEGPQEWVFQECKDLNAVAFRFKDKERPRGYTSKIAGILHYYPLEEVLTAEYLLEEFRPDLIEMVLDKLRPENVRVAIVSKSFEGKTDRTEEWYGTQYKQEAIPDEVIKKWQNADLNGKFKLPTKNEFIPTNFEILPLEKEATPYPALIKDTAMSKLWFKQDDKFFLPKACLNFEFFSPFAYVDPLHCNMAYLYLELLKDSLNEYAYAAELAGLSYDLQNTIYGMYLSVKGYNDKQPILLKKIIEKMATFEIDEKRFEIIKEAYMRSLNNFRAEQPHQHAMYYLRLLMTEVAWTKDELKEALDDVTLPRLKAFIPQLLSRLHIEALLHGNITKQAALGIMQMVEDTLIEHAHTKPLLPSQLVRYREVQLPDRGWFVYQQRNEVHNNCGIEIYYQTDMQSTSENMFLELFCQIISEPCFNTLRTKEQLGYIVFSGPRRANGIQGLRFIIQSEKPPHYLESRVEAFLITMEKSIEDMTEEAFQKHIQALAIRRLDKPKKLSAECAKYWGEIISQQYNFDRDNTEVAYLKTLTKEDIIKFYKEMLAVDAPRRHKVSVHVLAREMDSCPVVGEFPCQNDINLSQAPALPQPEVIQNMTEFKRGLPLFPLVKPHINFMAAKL
Briefly: activators of recombinant IDE enzyme, dose response, counter-screen for IDE activator project, biochemical, fluorescence polarization (AID 588681).

Assay [8] deals with T4, Apoptotic protease-activating factor 1 (Homo sapiens, UniProt O14727).
T4 sequence (O14727 whole entry): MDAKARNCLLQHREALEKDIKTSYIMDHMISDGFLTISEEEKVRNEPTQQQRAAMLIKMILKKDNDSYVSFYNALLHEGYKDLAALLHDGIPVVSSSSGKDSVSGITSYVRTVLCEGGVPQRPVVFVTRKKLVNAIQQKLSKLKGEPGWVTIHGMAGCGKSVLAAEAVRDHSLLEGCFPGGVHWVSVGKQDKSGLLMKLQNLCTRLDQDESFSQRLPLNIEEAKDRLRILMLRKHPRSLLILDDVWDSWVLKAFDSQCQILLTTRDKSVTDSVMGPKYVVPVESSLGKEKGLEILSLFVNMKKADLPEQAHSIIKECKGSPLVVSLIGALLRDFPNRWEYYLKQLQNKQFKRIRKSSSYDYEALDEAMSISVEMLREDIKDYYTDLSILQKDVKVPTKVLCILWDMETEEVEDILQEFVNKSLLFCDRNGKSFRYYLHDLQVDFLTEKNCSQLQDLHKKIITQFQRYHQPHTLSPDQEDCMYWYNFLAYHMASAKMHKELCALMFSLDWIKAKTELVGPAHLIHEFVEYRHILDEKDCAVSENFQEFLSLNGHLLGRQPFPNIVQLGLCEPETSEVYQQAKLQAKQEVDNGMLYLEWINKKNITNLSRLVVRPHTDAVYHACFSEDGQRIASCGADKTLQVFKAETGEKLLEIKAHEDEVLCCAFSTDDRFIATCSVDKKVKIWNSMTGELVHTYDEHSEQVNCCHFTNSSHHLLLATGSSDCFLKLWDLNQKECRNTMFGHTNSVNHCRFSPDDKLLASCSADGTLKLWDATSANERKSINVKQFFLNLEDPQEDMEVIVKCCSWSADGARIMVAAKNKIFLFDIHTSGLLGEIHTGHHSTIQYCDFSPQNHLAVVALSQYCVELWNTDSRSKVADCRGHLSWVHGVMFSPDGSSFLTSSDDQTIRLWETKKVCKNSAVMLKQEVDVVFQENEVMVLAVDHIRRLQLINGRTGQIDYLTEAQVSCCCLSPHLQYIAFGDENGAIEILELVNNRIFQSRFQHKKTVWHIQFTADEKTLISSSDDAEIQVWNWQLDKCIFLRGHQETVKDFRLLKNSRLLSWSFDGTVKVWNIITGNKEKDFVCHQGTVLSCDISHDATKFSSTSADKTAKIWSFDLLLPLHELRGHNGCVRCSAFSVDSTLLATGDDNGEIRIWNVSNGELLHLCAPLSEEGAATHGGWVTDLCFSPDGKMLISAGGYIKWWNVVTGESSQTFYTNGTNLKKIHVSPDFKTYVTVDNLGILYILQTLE
The format is functional.

Assay [9] deals with T3, Insulin-degrading enzyme. Nature of the assay: activators of endogenous IDE in HEK cells, dose response, cell-based, fluorescence polarization (AID 588439). The format is functional.
For assay [10], the target named is T5, Ubiquitin-conjugating enzyme E2 N (Homo sapiens, UniProt P61088).
T5 sequence (P61088 whole entry): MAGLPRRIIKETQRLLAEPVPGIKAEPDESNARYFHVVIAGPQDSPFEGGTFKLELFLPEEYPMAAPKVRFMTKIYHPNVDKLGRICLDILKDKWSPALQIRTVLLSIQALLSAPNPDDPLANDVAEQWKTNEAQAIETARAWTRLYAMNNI
The assay is classed as functional.

In assay [11] the target is T5, Ubiquitin-conjugating enzyme E2 N. The format is functional. The source holds these as a separate data set.
The nature of assay [12]: cytotoxicity in HEK-293T cells, dose response, cytotoxicity control for BCR NF-kB inhibitor project, luminescence, B-cell screen hits (AID 489021).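 Further: HEK-293T cells carrying an NF-kB luciferase reporter; cells exposed to compound for about 14 hours before viability readout.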 The format is functional, cell-based.
Assay [13] concerns the target Neurotensin receptor type 1 (Homo sapiens, UniProt P30989). The assay is classed as functional.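 Further: Image-based confirmatory dose-response assay measuring agonist activity at NTR1; NTR1-expressing U2OS osteosarcoma cells imaged for beta-arrestin GFP spot formation; agonist potency where compounds increase beta-arrestin recruitment.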
The test system of assay [14] is HEK293. Briefly: inhibitors of LMP1-driven NF-kB reporter, dose response, cell-based, HEK293, luciferase, cherry-pick (AID 588343). The format is functional. The note with it: Homo sapiens.
A further assay concerns INS1. Nature of the assay: beta cell apoptosis inhibitors, cytokine rescue, dose response, luminescence, retest (AID 449756).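 Further: cell death triggered by IL-1 beta plus TNF-alpha plus IFN-gamma mixture; protective hits raise ATP signal compared with cytokine alone wells.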 The assay is classed as functional, cell-based. The settings on record: Rattus norvegicus.
Assay [15] is described as follows: Luminescence Cell-Based Dose Retest to Confirm Inhibitors of Cancer Stem Cells. [Related pubchem assays (depositor defined):AID2717, AID2721]. The assay is classed as functional. The settings on record: Homo sapiens.

Counter-ions that a name gives are not always drawn. Activity calls are given as the source filed them.

Sequence of Melanocortin receptor 4 (P32245 whole entry): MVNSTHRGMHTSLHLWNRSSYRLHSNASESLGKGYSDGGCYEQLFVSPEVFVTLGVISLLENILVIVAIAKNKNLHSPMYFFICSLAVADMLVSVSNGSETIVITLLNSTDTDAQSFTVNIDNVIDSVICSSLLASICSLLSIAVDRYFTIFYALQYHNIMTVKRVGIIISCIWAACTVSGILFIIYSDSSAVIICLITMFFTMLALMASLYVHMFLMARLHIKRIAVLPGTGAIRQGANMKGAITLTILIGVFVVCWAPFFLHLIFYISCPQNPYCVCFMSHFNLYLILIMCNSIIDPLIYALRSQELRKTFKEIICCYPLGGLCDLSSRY
Sequence of 26S proteasome non-ATPase regulatory subunit 14 (O00487 whole entry): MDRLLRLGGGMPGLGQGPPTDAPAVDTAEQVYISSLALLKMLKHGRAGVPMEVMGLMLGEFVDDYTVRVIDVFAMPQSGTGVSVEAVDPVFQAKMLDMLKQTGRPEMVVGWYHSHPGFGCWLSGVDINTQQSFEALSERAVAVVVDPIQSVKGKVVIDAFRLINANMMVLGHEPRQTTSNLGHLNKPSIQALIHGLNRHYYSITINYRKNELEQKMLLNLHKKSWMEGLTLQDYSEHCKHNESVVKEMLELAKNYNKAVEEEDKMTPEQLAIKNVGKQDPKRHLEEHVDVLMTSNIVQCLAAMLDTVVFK
Sequence of 72 kDa type IV collagenase (P08253 whole entry, the tested form may be a part): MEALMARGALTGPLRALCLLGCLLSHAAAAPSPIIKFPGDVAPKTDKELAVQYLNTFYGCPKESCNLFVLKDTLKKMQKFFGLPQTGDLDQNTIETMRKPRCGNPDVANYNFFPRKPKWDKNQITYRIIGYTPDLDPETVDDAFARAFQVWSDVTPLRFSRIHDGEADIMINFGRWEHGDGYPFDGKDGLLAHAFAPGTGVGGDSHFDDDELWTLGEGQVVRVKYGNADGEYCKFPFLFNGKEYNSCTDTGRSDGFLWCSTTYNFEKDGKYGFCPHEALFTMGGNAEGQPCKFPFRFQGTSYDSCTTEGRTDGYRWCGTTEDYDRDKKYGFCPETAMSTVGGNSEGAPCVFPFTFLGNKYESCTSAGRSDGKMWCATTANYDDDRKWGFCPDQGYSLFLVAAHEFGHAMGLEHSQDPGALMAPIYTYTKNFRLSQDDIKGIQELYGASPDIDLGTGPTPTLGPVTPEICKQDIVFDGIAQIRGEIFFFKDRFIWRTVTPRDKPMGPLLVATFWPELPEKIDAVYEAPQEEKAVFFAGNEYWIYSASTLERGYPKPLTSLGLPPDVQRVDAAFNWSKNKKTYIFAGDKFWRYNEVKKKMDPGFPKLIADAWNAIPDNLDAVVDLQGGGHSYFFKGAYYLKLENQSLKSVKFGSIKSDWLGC
Sequence of Cytochrome P450 2D6 (P10635 whole entry): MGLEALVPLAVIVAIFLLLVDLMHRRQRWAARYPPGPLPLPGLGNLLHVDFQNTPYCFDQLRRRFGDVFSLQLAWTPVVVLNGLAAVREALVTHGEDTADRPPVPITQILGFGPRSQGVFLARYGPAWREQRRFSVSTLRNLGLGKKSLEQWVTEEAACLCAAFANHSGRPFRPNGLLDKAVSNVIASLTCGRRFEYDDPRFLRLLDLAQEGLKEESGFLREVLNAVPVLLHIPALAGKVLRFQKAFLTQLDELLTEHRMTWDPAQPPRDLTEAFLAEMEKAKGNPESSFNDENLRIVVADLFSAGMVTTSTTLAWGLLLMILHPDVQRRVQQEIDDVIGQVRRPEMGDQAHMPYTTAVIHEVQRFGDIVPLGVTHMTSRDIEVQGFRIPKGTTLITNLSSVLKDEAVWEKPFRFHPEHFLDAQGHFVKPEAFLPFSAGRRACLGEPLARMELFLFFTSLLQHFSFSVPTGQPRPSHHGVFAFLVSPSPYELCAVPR
Sequence of SUMO-activating enzyme (Q9UBE0 whole entry): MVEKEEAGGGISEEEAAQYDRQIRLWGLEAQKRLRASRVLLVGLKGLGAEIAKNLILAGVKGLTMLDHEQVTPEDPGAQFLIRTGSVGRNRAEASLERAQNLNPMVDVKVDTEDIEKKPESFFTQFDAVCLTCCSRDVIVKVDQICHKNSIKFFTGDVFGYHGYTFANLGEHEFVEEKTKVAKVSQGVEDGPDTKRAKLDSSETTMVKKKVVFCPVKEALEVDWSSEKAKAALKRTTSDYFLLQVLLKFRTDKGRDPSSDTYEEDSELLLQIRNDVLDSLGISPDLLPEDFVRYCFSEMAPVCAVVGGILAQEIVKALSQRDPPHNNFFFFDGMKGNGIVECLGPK
Sequence of SUMO-activating enzyme (Q9UBT2 whole entry): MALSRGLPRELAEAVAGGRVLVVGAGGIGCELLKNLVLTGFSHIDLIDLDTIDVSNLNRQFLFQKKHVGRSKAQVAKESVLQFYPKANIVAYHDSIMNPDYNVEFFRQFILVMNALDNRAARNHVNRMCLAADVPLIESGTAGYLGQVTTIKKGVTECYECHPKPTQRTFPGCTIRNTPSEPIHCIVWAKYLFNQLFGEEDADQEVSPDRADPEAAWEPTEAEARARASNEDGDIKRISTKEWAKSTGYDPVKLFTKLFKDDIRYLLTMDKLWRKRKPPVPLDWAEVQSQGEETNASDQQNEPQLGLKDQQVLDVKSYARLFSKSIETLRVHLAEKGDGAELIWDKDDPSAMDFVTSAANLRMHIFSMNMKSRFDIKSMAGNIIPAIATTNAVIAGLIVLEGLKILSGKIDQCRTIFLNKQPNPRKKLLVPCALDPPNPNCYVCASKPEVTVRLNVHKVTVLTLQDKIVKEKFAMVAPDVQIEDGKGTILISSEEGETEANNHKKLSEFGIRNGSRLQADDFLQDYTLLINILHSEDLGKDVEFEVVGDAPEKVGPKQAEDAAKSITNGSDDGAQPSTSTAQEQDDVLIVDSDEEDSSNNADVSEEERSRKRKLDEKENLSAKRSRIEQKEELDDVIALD
Sequence of Neurotensin receptor type 1 (P30989 whole entry): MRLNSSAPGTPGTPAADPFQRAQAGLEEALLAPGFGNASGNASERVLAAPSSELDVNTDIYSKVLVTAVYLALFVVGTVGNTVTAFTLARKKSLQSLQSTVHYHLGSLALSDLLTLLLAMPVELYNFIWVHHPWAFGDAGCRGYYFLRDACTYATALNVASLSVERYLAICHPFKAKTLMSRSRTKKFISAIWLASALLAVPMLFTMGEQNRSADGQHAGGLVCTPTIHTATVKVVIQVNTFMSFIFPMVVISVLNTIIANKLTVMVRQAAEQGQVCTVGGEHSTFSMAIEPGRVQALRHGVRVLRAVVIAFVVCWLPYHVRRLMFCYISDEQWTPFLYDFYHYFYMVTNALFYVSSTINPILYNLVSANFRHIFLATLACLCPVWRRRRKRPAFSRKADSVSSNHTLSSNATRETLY

For `CN1/C(=C\C(=O)COC(=O)Cn2nnc(-c3ccccc3)n2)C(C)(C)c2ccccc21`, the IC50 (in general, the point on the concentration scale where inhibition reaches its midpoint) at Prothrombin was 51.6 µM (active); in [1], 34.5 µM (active); in [2], > 100 µM (inactive). For the same compound, the AC50 – broadly, the concentration at which the activity in the assay is half-maximal – is 1.58 µM (inconclusive) at Cytochrome P450 1A2 and 31.6 µM (inconclusive) at Cytochrome P450 2D6.
With `Cc1cc2ccccc2n1CCNCc1c(C(=O)N2CCOCC2)nc2ccccn12`, the AC50 in assay [3] is 110 µM (active).
Turning to `CCOC(=O)c1c(NC(=O)C(C)OC(=O)C2=COCCO2)sc2c1CCCC2` (configuration not stated), the values for the IC50 (in assay [4]; on Melanocortin receptor 4) were > 64.6 µM (inactive) and > 7.18 µM (active), respectively.
`Sc1nnc(-c2cc(-c3ccccc3)[nH]n2)n1/N=C/c1ccc(Cl)c(Cl)c1`: the IC50 was > 100 µM (inactive) on Prothrombin, 49.8 µM (active) on SUMO-activating enzyme, 8.54 µM (active) in assay [1] and > 100 µM (inactive) in [2].
Regarding `C#CCOCCOCCOCCNc1nc(N2CCN(C(=O)CCCCCCCCCCNC(=O)Cn3cc(CCCCCN)nn3)CC2)nc(N2CCN(C(=O)CCCCCCCCCCNC(=O)[C@@H]([C@H](C)O)n3cc(C)nn3)CC2)n1`, the EC50 (in general, the concentration giving half of the maximal effect) is > 54.7 µM (inactive) in the assay on HEK293 [5], > 54.7 µM (inactive) at Insulin-degrading enzyme [7] and > 6.07 µM (active) on Insulin-degrading enzyme [9]. Besides, the IC50 is 17.8 µM (inactive) in the assay with HEK293 [6]; > 20 µM (inactive) on Bcl-2-related protein A1; 36.7 µM (active) in assay [8]; 10.7 µM (active) in [10]; 6.62 µM (active) in assay [11].
Regarding `CNC(=O)c1cc(Oc2ccc(NC(=O)Nc3ccc(Cl)c(C(F)(F)F)c3)cc2)ccn1` [SORAFENIB TOSYLATE], the IC50 in assay [12] is 70.6 µM (inactive); in assay [4] it was > 64.6 µM (inactive); on Melanocortin receptor 4, 4.48 µM (active). In [13], the EC50 is 14.6 µM (active). Besides, the AC50 in the assay with HEK293 [14] was 1.6 µM (active); in the assay on INS1, 6.78 µM (active); in [15], 2.04 µM (active).
